Test [1] is described as follows: Antifungal activity against Fusarium oxysporum f. sp. lycopersici 4287 assessed as reduction in mycelium growth at 100 ppm after 72 hrs by spectrophotometric analysis. It is filed as functional. Details: scale not given: the % may be the effect or the level left.
The test system of the next test is Penicillium digitatum. Description: […] activity against Penicillium digitatum. The class given is functional, organism-based.
Test [2] can be described thus: Antifungal activity against Fusarium oxysporum f. sp. lycopersici 4287 assessed as reduction in mycelium growth at 50 ppm after 72 hrs by spectrophotometric analysis. The class given is functional. Details: scale not given: the % may be the effect or the level left.

In brackets after ≈: the same amount, converted by molar mass. *1 amine or outer side, *2 acyl side, *3 side chain or, on linkers, in order; H or OH if unused. Where a SMILES comes first, the peptide text is derived from it. Bridges are numbered along the chain shown (N, C = ends). X1 = CCCCCCCCCCCCCCC[C@H](CC(=O)[*:1])O[*:2]; X2 = CCCCCCCCCCCCCC[C@H](CC(=O)[*:1])O[*:2]; X3 = CCCCCCCCCCCCC[C@H](CC(=O)[*:1])O[*:2]

As to `CCCCCCCCCCCCC[C@@H]1CC(=O)N[C@@H](CCC(=O)O)C(=O)N[C@@H](CC(C)C)C(=O)N[C@@H](CC(C)C)C(=O)N[C@@H](C)C(=O)N[C@@H](CC(=O)O)C(=O)N[C@@H](CC(C)C)C(=O)N[C@@H](CC(C)C)C(=O)O1` (ELLADLL; linker N-C via X3), in test [1], the Activity was 29%.
Still for that read-out and setting: for `CCCCCCCCCCCCCC[C@@H]1CC(=O)N[C@@H](CCC(=O)O)C(=O)N[C@@H](CC(C)C)C(=O)N[C@@H](CC(C)C)C(=O)N[C@@H](C)C(=O)N[C@@H](CC(=O)O)C(=O)N[C@@H](CC(C)C)C(=O)N[C@@H](CC(C)C)C(=O)O1` (ELLADLL; linker N-C via X2) the value was 11%.
The term EC50 denotes the concentration needed to bring the measured effect to its halfway point. In the case of `CCCCCCCCCCCCCCC[C@@H]1CC(=O)N[C@@H](CCC(=O)O)C(=O)N[C@@H](CC(C)C)C(=O)N[C@@H](CC(C)C)C(=O)N[C@@H](C)C(=O)N[C@@H](CC(=O)O)C(=O)N[C@@H](CC(C)C)C(=O)N[C@@H](CC(C)C)C(=O)O1` (ELLADLL; linker N-C via X1), in the test with Penicillium digitatum, the concentration giving a half-maximal response (EC50) came to 88.5 µg/mL (≈ 84.2 µM). The Activity was 25% in test [2] and 56% in test [1].
